Values joined by “and” are separate entries in the source; they are usually repeats but may differ in a detail not shown here. Equal values may be shown once.
Tests used:
[1] = target: T1, PRMT9 (Homo sapiens, UniProt Q6P2P2); assay: CBH-002 affinity curve, HEK293, PRMT9-NL fusion; type: cell-based; set-up: BRET, CBH-002 + DMSO / BRET, CBH-002 + GSK3326595: unit not given here; settings: for BRET, CBH-002 + DMSO / BRET, CBH-002 + GSK3326595: Figure S2D PRMT9-NL, log([CBH-002])
T1 construct: host or cells: HEK293
T1 sequence (Q6P2P2 1-845): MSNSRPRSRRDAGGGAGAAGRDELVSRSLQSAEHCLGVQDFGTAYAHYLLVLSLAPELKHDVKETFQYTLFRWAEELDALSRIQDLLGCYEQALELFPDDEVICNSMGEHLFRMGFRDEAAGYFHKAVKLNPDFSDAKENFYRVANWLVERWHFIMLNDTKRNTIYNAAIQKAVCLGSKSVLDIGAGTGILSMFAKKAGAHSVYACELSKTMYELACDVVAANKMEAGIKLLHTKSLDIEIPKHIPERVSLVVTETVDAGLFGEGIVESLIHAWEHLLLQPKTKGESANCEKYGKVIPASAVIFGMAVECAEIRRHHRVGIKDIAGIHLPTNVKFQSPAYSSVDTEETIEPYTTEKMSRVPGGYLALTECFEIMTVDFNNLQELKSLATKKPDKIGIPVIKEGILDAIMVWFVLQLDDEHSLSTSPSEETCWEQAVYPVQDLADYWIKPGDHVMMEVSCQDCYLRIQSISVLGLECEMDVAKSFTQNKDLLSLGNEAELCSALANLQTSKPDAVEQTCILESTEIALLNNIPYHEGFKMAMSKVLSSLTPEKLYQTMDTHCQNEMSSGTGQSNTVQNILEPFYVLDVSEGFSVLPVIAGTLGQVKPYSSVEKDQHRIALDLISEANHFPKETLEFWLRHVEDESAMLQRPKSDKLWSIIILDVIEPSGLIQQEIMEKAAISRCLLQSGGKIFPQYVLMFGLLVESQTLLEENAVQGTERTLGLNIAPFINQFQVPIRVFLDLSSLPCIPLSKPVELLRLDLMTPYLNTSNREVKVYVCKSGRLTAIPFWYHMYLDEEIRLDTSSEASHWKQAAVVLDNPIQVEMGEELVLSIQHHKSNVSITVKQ
Description: (§1) HEK293 cells (ATCC) were cultured in DMEM (Thermo Fisher) + 10% (v/v) FBS (Seredigm), and HCT116 cells (Horizon Discovery, #PAR-034 and #R02-033) were cultured in McCoy’s 5A (Thermo Fisher) + 10% FBS, with incubation in a humidified, 37 °C/5% CO2 incubator. Cells were split 1–3 days prior to performing experiments and used at roughly 80% confluency. […] Cells were transfected according to the manufacturer’s protocol using FuGENE HD (Promega). NanoLuc fusion DNA was diluted into Transfection Carrier DNA (Promega) in Opti-MEM at a ratio of 1:9 (mass/mass), and FuGENE HD was added at a ratio of 1:3 (μg DNA:μL lipid). For experiments using WDR77, untagged WDR77 DNA (Promega) was used in place of Carrier DNA. Formed complexes were combined with cells resuspended to a density of 2 × 10^5 cells/mL in Opti-MEM + 1% FBS at a ratio of 1:20 (vol:vol). Cells were plated into a flask and incubated at 37 °C in a humidified 5% CO2 atmosphere for 18–24 h, before being lifted and seeded into 96-well non-binding surface-treated plates (Corning). Cells were seeded at a density of 2 × 10^5 cells/mL in Opti-MEM + 1% FBS in 100 μL (96-well). The BRET probe CBH-002 was prepared first as a 100× stock in 100% DMSO (Sigma) and then diluted to a 20× stock in NanoBRET Tracer Dilution buffer (Promega). Test compounds were prepared as 1000× stocks in 100% DMSO and diluted to 10× stocks in Opti-MEM to prepare working stocks. […] NanoBRET Complete 3x Substrate was prepared by combining Nano-Glo Substrate and Extracellular NanoLuc Inhibitor in Opti-MEM, according to the manufacturer’s protocol (Promega). NanoBRET Complete 3× Substrate was added to cells and plates were measured on either a PheraSTAR FSX equipped with 450 nm (donor) and 610 nm (acceptor) filters, or a GloMAX Discover equipped with 450/8 nm BP (donor) and 600 nm LP (acceptor) filters, using a 0.3 s integration time.
(§2) EC50 values were obtained by fitting the BRET probe and compound affinity curves to a sigmoidal four-parameter fit model in Graphpad Prism:1 Y=Ymin+Ymax−Ymin/1+10^LogEC50−Xh where h is the Hill Slope.

[2] = target: T2, RIPK2 (Homo sapiens, UniProt O43353); assay: CBH-002 affinity curve, HEK293, RIPK2-NL fusion (cytosolic control); type: cell-based; set-up: BRET, CBH-002 + DMSO / BRET, CBH-002 + GSK3326595: unit not given here; settings: for BRET, CBH-002 + DMSO / BRET, CBH-002 + GSK3326595: Figure S2E RIPK2-NL, log([CBH-002])
T2 construct: host or cells: HEK293
Description: as §1, §2

T2 sequence (O43353 whole entry, the tested form may be a part): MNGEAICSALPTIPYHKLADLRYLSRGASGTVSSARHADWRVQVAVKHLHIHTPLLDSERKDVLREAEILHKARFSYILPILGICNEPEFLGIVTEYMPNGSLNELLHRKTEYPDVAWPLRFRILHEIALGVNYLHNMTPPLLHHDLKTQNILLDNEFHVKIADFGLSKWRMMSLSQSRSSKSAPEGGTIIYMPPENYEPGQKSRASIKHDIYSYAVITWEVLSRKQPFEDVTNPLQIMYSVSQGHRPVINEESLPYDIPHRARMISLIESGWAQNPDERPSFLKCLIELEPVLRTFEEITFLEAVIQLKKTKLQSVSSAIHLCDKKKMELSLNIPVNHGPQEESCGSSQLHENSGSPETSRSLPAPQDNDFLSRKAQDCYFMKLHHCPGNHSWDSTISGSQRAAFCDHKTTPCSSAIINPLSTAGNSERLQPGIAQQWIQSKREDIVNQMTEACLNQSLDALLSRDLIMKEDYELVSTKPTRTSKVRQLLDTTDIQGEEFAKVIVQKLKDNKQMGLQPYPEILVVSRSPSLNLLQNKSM

BRET, CBH-002 + DMSO ([1]; uM 0.04576): 3.434 and 3.347 and 3.1287 | BRET, CBH-002 + GSK3326595 ([1]; uM 0.04576): 3.008 and 3.39 and 2.997 | BRET, CBH-002 + DMSO ([1]; uM 0.52288): 4.122 and 5.87 and 4.53 | BRET, CBH-002 + GSK3326595 ([1]; uM 0.52288): 5.212 and 4.497 and 4.8771 | BRET, CBH-002 + DMSO ([1]; uM 1): 6.91 and 7.001 and 6.884 | BRET, CBH-002 + GSK3326595 ([1]; uM 1): 6.307 and 7.343 and 6.276 | BRET, CBH-002 + DMSO ([1]; uM -0.43136): 2.433 and 2.903 and 2.863 | BRET, CBH-002 + GSK3326595 ([1]; uM -0.43136): 2.897 and 2.374 and 2.8944 | BRET, CBH-002 + DMSO ([1]; uM -0.90849): 2.344 and 2.202 and 2.303 | BRET, CBH-002 + GSK3326595 ([1]; uM -0.90849): 2.454 and 2.214 and 2.074 | BRET, CBH-002 + DMSO ([1]; uM -1.20952): 1.839 and 2.321 and 2.413 | BRET, CBH-002 + GSK3326595 ([1]; uM -1.20952): 2.422 and 2.062 and 3.074 | BRET, CBH-002 + DMSO ([1]; uM -1.68664): 1.998 and 2.054 and 2.063 | BRET, CBH-002 + GSK3326595 ([1]; uM -1.68664): 2.126 and 2.181 and 2.003 | BRET, CBH-002 + DMSO ([1]; uM -1.98767): 2.1788 and 2.218 and 2.268 | BRET, CBH-002 + GSK3326595 ([1]; uM -1.98767): 2.04 and 1.965 and 2.075 | BRET, CBH-002 + GSK3326595 ([1]; uM -2.46479): 2.072 and 1.988 and 1.944 | BRET, CBH-002 + DMSO ([1]; uM -2.94191): 1.888 and 2.124 and 2.713 | BRET, CBH-002 + GSK3326595 ([1]; uM -2.94191): 1.993 and 2.159 and 2.4012 | CBH-002 engagement at PRMT9 ([1]; HEK293, PRMT9-NL): did not show engagement | BRET, CBH-002 + DMSO ([2]; uM 0.04576): 1.852 and 1.939 and 2.142 | BRET, CBH-002 + GSK3326595 ([2]; uM 0.04576): 1.842 and 1.813 and 1.9392 | BRET, CBH-002 + DMSO ([2]; uM 0.52288): 5.1141 and 4.646 and 5.258 | BRET, CBH-002 + GSK3326595 ([2]; uM 0.52288): 4.515 and 4.266 and 4.4734 | BRET, CBH-002 + DMSO ([2]; uM 1): 11.7522 and 11.9286 and 12.3306 | BRET, CBH-002 + GSK3326595 ([2]; uM 1): 11.5342 and 11.3369 and 11.377 | BRET, CBH-002 + DMSO ([2]; uM -0.43136): 0.8543 and 0.8172 and 0.8282 | BRET, CBH-002 + GSK3326595 ([2]; uM -0.43136): 0.5912 and 0.5546 and 0.9723 | CBH-002 engagement at RIPK2 ([2]; HEK293, RIPK2-NL): did not show engagement
SMILES: O=C(CCc1ccc2n1[B-](F)(F)[N+]1=C(c3ccc[nH]3)C=CC1=C2)NCCCCC(=O)N1CCC(Nc2cc(C(=O)NC[C@H](O)CN3CCc4ccccc4C3)ncn2)CC1 [CBH-002]
